Measured values published in patent publication EP0284935A1, “5-Substituted quinolone- and naphthyridone carboxylic acid derivatives” (BAYER AG, priority 1987, dated 1988).
Values after ≈ are worked out from the molar mass of the structure shown. Structures can show the parent of a compound that is named as a salt.

Legend:
Assay in all cases: Agar dilution test, minimum inhibitory concentration
Type in all cases: cell-based
Providencia 12012 = conditions: test strain Providencia 12012; Isosensitest-Agar (Oxoid), inoculum ca. 10^4 germs per inoculation point; read-out: Minimale Hemmkonzentrationen
Providencia 12052 = conditions: test strain Providencia 12052; Isosensitest-Agar (Oxoid), inoculum ca. 10^4 germs per inoculation point; read-out: Minimale Hemmkonzentrationen
E.coli A261 = conditions: Escherichia coli; test strain E.coli A261; Isosensitest-Agar (Oxoid), inoculum ca. 10^4 germs per inoculation point; read-out: Minimale Hemmkonzentrationen
E.coli 455/7 = conditions: Escherichia coli; test strain E.coli 455/7; Isosensitest-Agar (Oxoid), inoculum ca. 10^4 germs per inoculation point; read-out: Minimale Hemmkonzentrationen
Pseudomonas Walter = conditions: test strain Pseudomonas Walter; Isosensitest-Agar (Oxoid), inoculum ca. 10^4 germs per inoculation point; read-out: Minimale Hemmkonzentrationen
Klebsiella 63 = conditions: test strain Klebsiella 63; Isosensitest-Agar (Oxoid), inoculum ca. 10^4 germs per inoculation point; read-out: Minimale Hemmkonzentrationen
Serratia 16040 = conditions: test strain Serratia 16040; Isosensitest-Agar (Oxoid), inoculum ca. 10^4 germs per inoculation point; read-out: Minimale Hemmkonzentrationen
Klebsiella 8085 = conditions: test strain Klebsiella 8085; Isosensitest-Agar (Oxoid), inoculum ca. 10^4 germs per inoculation point; read-out: Minimale Hemmkonzentrationen
Enteroc. 9790 = conditions: test strain Enteroc. 9790; Isosensitest-Agar (Oxoid), inoculum ca. 10^4 germs per inoculation point; read-out: Minimale Hemmkonzentrationen
Proteus mir. 8223 = conditions: test strain Proteus mir. 8223; Isosensitest-Agar (Oxoid), inoculum ca. 10^4 germs per inoculation point; read-out: Minimale Hemmkonzentrationen
Staph. 1756 = conditions: test strain Staph. 1756; Isosensitest-Agar (Oxoid), inoculum ca. 10^4 germs per inoculation point; read-out: Minimale Hemmkonzentrationen
Morg. morg. 932 = conditions: test strain Morg. morg. 932; Isosensitest-Agar (Oxoid), inoculum ca. 10^4 germs per inoculation point; read-out: Minimale Hemmkonzentrationen
Staph. 133 = conditions: test strain Staph. 133; Isosensitest-Agar (Oxoid), inoculum ca. 10^4 germs per inoculation point; read-out: Minimale Hemmkonzentrationen
Enteroc. 27101 = conditions: test strain Enteroc. 27101; Isosensitest-Agar (Oxoid), inoculum ca. 10^4 germs per inoculation point; read-out: Minimale Hemmkonzentrationen
Staph. FK 422 = conditions: test strain Staph. FK 422; Isosensitest-Agar (Oxoid), inoculum ca. 10^4 germs per inoculation point; read-out: Minimale Hemmkonzentrationen
Morg. morg. 11006 = conditions: test strain Morg. morg. 11006; Isosensitest-Agar (Oxoid), inoculum ca. 10^4 germs per inoculation point; read-out: Minimale Hemmkonzentrationen
Pseudomonas Ellsworth = conditions: test strain Pseudomonas Ellsworth; Isosensitest-Agar (Oxoid), inoculum ca. 10^4 germs per inoculation point; read-out: Minimale Hemmkonzentrationen
Proteus mir. 8175 = conditions: test strain Proteus mir. 8175; Isosensitest-Agar (Oxoid), inoculum ca. 10^4 germs per inoculation point; read-out: Minimale Hemmkonzentrationen
Proteus vulg. 1017 = conditions: test strain Proteus vulg. 1017; Isosensitest-Agar (Oxoid), inoculum ca. 10^4 germs per inoculation point; read-out: Minimale Hemmkonzentrationen

SMILES	MIC (Providencia 12012) [mg/L]	MIC (Providencia 12052) [mg/L]	MIC (E.coli A261) [mg/L]	MIC (E.coli 455/7) [mg/L]	MIC (Pseudomonas Walter) [mg/L]	MIC (Klebsiella 63) [mg/L]	MIC (Serratia 16040) [mg/L]	MIC (Klebsiella 8085) [mg/L]	MIC (Enteroc. 9790) [mg/L]	MIC (Proteus mir. 8223) [mg/L]	MIC (Staph. 1756) [mg/L]	MIC (Morg. morg. 932) [mg/L]	MIC (Staph. 133) [mg/L]	MIC (Enteroc. 27101) [mg/L]	MIC (Staph. FK 422) [mg/L]	MIC (Morg. morg. 11006) [mg/L]	MIC (Pseudomonas Ellsworth) [mg/L]	MIC (Proteus mir. 8175) [mg/L]	MIC (Proteus vulg. 1017) [mg/L]
Nc1c(F)c(N2CCN(CCO)CC2)c(F)c2c1c(=O)c(C(=O)O)cn2C1CC1 [Beispiel 21]	0.06 (≈ 0.147 µM)	2 (≈ 4.9 µM)	0.5 (≈ 1.22 µM)	2 (≈ 4.9 µM)	1 (≈ 2.45 µM)	0.06 (≈ 0.147 µM)	4 (≈ 9.79 µM)	0.06 (≈ 0.147 µM)	0.25 (≈ 0.612 µM)	0.5 (≈ 1.22 µM)	0.06 (≈ 0.147 µM)	0.03 (≈ 0.0735 µM)	0.06 (≈ 0.147 µM)	0.25 (≈ 0.612 µM)	0.06 (≈ 0.147 µM)				
CCNCC1CCN(c2c(F)c(N)c3c(=O)c(C(=O)O)cn(C4CC4)c3c2F)C1 (stereo not shown) [Beispiel 32, 5-Amino-1-cyclopropyl-7-(3-ethylaminomethyl-1-pyrrolidinyl)-6.8-difluor-1,4-dihydro-4-oxo-3-chinolincarbonsäure-hydrochlorid-hydrat]	0.03	1	0.06	1	1		4	0.03	0.03	0.5	0.03		0.03	0.03	0.03	0.03	0.03	0.06	
Nc1c(F)c(N2CCCC2)c(F)c2c1c(=O)c(C(=O)O)cn2C1CC1 [Beispiel 27, 5-Amino-1-cyclopropyl-6,8-difluor-1,4-dihydro-4-oxo-7-(1-pyrrolidinyl)-3-chinolincarbonsäure]	0.06 (≈ 0.172 µM)	8 (≈ 22.9 µM)	2 (≈ 5.73 µM)	16 (≈ 45.8 µM)	1 (≈ 2.86 µM)		16 (≈ 45.8 µM)			0.25 (≈ 0.716 µM)		0.06 (≈ 0.172 µM)		0.03 (≈ 0.0859 µM)				0.25 (≈ 0.716 µM)	0.06 (≈ 0.172 µM)
CCN1CCN(c2c(F)c(N)c3c(=O)c(C(=O)O)cn(C4CC4)c3c2F)CC1 [Beispiel 20, 5-Amino-1-cyclopropyl-7-(4-ethyl-1-piperazinyl)-6,8-difluor-1.4-dihydro-4-oxo-3-chinolincarbonsäure]	0.06 (≈ 0.153 µM)	1 (≈ 2.55 µM)	0.25 (≈ 0.637 µM)	2 (≈ 5.1 µM)	1 (≈ 2.55 µM)	0.03 (≈ 0.0765 µM)	4 (≈ 10.2 µM)	0.06 (≈ 0.153 µM)	0.25 (≈ 0.637 µM)	0.25 (≈ 0.637 µM)	0.06 (≈ 0.153 µM)	0.03 (≈ 0.0765 µM)	0.06 (≈ 0.153 µM)	0.25 (≈ 0.637 µM)	0.06 (≈ 0.153 µM)	0.06 (≈ 0.153 µM)	0.03 (≈ 0.0765 µM)		
Nc1c(F)c(N2CCN3CCC2C3)c(F)c2c1c(=O)c(C(=O)O)cn2C1CC1 (stereo not shown) [Beispiel 25, 5-Amino-1-cyclopropyl-7-(1,4-diazabicyclo[3.2.1]oct-4-yl)-6,8-difluor-1,4-dihydro-4-oxo-3-chinolincarbonsäure]	0.06 (≈ 0.154 µM)	4 (≈ 10.2 µM)		1 (≈ 2.56 µM)	0.5 (≈ 1.28 µM)	0.03 (≈ 0.0768 µM)	4 (≈ 10.2 µM)	0.06 (≈ 0.154 µM)		1 (≈ 2.56 µM)						0.03 (≈ 0.0768 µM)	0.03 (≈ 0.0768 µM)		
C[C@@H]1CN(c2c(F)c(N)c3c(=O)c(C(=O)O)cn(C4CC4)c3c2F)C[C@H](C)N1 [Beispiel 22, 5-Amino-1-cyclopropyl-6,8-difluor-1,4-dihydro-7-(cis-3,5-dimethyl-1-piperazinyl)-4-oxo-3-chinolincarbonsäure]	0.03 (≈ 0.0765 µM)	1 (≈ 2.55 µM)		0.5 (≈ 1.27 µM)	0.5 (≈ 1.27 µM)	0.03 (≈ 0.0765 µM)	2 (≈ 5.1 µM)	0.06 (≈ 0.153 µM)	0.25 (≈ 0.637 µM)	0.5 (≈ 1.27 µM)	0.03 (≈ 0.0765 µM)	0.03 (≈ 0.0765 µM)	0.03 (≈ 0.0765 µM)		0.03 (≈ 0.0765 µM)	0.03 (≈ 0.0765 µM)	0.03 (≈ 0.0765 µM)	0.06 (≈ 0.153 µM)	
